The text below walks through data of patent publication US20180099931A1 (AbbVie S.à.r.l., priority 2016, published 2018).

Where two headings read alike, the source gives them in different places.

In general, EC50 refers to the concentration needed to bring the measured effect to its halfway point.

The test has as its target T1, F508delCFTR (Homo sapiens, UniProt P13569, DEL508-508).
T1 construct: expressed in transfected cells; host or cells: CFBE41o- human lung-derived epithelial cells (CFBE4lo-F508delCFTR-HRP), doxycycline-inducible
Put plainly: Cell Surface Expression-Horse Radish Peroxidase (CSE-HRP) Assay.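 As to Maximum % activity (with co-corrector): co-corrector and positive control are both the same reference corrector at 2 µM.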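 As to Maximum % activity (without co-corrector): percent of the 2 µM on-plate positive control corrector response above DMSO.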 It is filed as cell-based. Particulars: for Maximum % activity (with co-corrector) / Emax: maximum at any tested concentration, normalized to on-plate positive control; for Emax: read-out: Maximum % activity (without co-corrector).

[1] abbreviates: CSE-HRP, test compound without co-corrector, read-out: EC50 (without co-corrector).
[2] abbreviates: CSE-HRP, with co-corrector (2 μM of 3-[(2R,4R)-4-({[1-(2,2-difluoro-1,3-benzodioxol-5-yl)cyclopropyl]carbonyl}amino)-7-methoxy-3,4-dihydro-2H-chromen-2-yl]benzoic acid), read-out: EC50 (with co-corrector).
Setting [3] is: CSE-HRP, with co-corrector (2 μM).
Setting [4] is: test compound without co-corrector, read-out: EC50 (without co-corrector).
[5] abbreviates: with co-corrector (2 μM of 3-[(2R,4R)-4-({[1-(2,2-difluoro-1,3-benzodioxol-5-yl)cyclopropyl]carbonyl}amino)-7-methoxy-3,4-dihydro-2H-chromen-2-yl]benzoic acid), read-out: EC50 (with co-corrector).
Setting [6] is: test compound without co-corrector.
[7] abbreviates: with co-corrector (2 μM of 3-[(2R,4R)-4-({[1-(2,2-difluoro-1,3-benzodioxol-5-yl)cyclopropyl]carbonyl}amino)-7-methoxy-3,4-dihydro-2H-chromen-2-yl]benzoic acid).

T1 sequence (P13569 with tags, fused parts or gaps DEL508-508): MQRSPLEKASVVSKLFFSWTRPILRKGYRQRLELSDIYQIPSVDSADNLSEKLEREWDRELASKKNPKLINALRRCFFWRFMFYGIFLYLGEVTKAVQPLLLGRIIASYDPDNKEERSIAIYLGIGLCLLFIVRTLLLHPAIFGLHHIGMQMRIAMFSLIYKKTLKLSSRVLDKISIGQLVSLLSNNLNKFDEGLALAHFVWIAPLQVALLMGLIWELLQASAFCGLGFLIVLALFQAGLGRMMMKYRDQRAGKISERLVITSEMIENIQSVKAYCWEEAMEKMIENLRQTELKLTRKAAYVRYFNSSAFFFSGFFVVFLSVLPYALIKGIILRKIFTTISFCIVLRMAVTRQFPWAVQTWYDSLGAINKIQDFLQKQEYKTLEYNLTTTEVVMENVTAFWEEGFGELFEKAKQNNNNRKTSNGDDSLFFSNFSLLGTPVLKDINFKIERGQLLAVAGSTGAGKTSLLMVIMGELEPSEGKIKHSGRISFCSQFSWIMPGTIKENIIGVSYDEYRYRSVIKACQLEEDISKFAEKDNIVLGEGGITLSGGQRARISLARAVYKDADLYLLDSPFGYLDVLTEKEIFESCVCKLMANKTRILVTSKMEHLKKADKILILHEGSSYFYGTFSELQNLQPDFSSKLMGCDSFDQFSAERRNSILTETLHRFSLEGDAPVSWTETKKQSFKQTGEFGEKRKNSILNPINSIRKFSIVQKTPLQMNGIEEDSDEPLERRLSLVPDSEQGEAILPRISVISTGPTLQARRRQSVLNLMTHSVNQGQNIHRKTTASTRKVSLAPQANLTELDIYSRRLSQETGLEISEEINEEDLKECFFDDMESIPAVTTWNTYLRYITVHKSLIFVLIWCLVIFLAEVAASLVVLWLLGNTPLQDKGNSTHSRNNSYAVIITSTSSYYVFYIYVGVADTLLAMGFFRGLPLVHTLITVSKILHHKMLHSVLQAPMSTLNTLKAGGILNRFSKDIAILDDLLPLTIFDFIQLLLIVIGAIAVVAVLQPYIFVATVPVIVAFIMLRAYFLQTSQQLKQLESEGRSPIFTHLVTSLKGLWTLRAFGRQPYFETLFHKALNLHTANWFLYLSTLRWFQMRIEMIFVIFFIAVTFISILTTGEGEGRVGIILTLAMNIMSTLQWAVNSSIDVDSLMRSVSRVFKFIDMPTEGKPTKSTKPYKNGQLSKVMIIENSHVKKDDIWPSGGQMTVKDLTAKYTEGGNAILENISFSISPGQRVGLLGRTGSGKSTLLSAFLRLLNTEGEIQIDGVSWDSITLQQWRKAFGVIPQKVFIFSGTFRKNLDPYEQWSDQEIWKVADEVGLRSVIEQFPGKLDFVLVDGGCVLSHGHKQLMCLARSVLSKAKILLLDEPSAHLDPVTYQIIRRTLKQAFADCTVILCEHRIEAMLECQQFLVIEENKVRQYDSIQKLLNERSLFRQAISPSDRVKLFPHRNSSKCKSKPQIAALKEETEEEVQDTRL

`COc1ncc(C(F)(F)F)cc1CN[C@H]1[C@H](C(C)(C)C)[C@@H](C(=O)O)N(C(=O)[C@H]2C[C@@H]3CC[C@H]2O3)[C@H]1c1ccccc1C(C)C` (relative stereo) [Example I-270]: the EC50 runs as follows: under setting [1], less than 1 µM; under setting [2], less than 1 µM. In addition, the “Maximum % activity (with co-corrector)” value under setting [3] is on record as “+++ (≥350)”. Also, the Emax (CSE-HRP, without co-corrector) is more than 200%.
For the compound `COc1ccc(C(C)(C)C)cc1CN[C@H]1[C@H](C(C)(C)C)[C@@H](C(=O)O)N(C(=O)C2COc3ccccc3C2)[C@H]1c1ccccc1` (stereo partly drawn) [II-232], the EC50 runs as follows: under setting [1], 1 to 10 µM; under setting [2], less than 1 µM. The “Maximum % activity (with co-corrector)” value under setting [3] is given as “+++ (≥350)”. The Emax (CSE-HRP, without co-corrector) was in the range of 100 to 200%.
For the compound `COc1ccc(C(C)C)cc1CN[C@H]1[C@H](C(C)(C)C)[C@@H](C(=O)O)N(C(=O)C2CCCCC2)[C@H]1c1ccccc1F` [Example I-111], the EC50 under setting [4] fell in the range of 1 to 10 µM and the EC50 under setting [5] is less than 1 µM. For the setting “with co-corrector (2 μM)”, the “Maximum % activity (with co-corrector)” value is listed as “+++ (≥350)”. Further, the Emax (without co-corrector) was in the range of 100 to 200%.
Turning to `COc1ncc(-c2ccccc2F)cc1CN[C@H]1[C@H](C(C)(C)C)[C@@H](C(=O)O)N(C(=O)C2CCCCC2)[C@H]1c1ccccc1` [Example I-140], the 50% effective concentration (EC50) was less than 1 µM under setting [4] and less than 1 µM under setting [5]. The “Maximum % activity (with co-corrector)” value (with co-corrector (2 μM)) was “+++ (≥350)”. Moreover, the Emax (without co-corrector) was more than 200%.
Regarding `COc1ccc(C(C)(C)C)cc1CN[C@H]1[C@H](C(C)(C)C)[C@@H](C(=O)O)N(C(=O)C2(c3ccccc3)CC2)[C@H]1c1cccnc1OC` [Example I-248], the 50% effective concentration (EC50) reads like this: under setting [4], 1 to 10 µM; under setting [5], 1 to 10 µM. The “Maximum % activity (with co-corrector)” value (with co-corrector (2 μM)) is “+++ (≥350)”. Where the note is “without co-corrector”, the Emax lay within 100 to 200%.
Regarding `COc1ccc(C(C)(C)C)cc1CN[C@H]1[C@H](C(C)(C)C)[C@@H](C(=O)O)N(C(=O)CN2Cc3ccccc3C2)[C@H]1c1ccccc1` [Example I-91], the EC50 lay within 1 to 10 µM under setting [4] and 1 to 10 µM under setting [5]. Further, under “with co-corrector (2 μM)”, the “Maximum % activity (with co-corrector)” value is recorded as “+++ (≥350)”. Moreover, the Emax (without co-corrector) was more than 200%.
Take `COc1ncc(C(F)(F)F)cc1CN[C@H]1[C@H](C(C)(C)C)[C@@H](C(=O)O)N(C(=O)OC(C)C)[C@H]1c1cccnc1N(C)C` [II-510]: the Emax under setting [6] was more than 200%. Further, the EC50 is, setting by setting: under setting [4], 1 to 10 µM; under setting [5], 1 to 10 µM. In addition, the “Maximum % activity (with co-corrector)” value under setting [7] is recorded as “+++ (≥350)”.
Consider `COc1nc(C(C)(C)C)ccc1CN[C@H]1[C@H](C(C)(C)C)[C@@H](C(=O)O)N(C(=O)[C@H]2CCC[C@@H](OC)C2)[C@H]1c1ccccc1` (relative stereo) [II-456], for which, under setting [6], the Emax was more than 200%. Besides, the EC50 lay in the range of 1 to 10 µM under setting [4] and 1 to 10 µM under setting [5]. In addition, the “Maximum % activity (with co-corrector)” value under setting [7] is “+++ (≥350)”.
As for `CCn1nc(C)c(C(=O)N2[C@H](C(=O)O)[C@@H](C(C)(C)C)[C@H](NCc3cc(C(C)(C)C)ccc3OC)[C@@H]2c2ccccc2)c1C` [II-362], the Emax under setting [6] lay within 100 to 200%. The EC50 was in the range of 1 to 10 µM under setting [4] and 1 to 10 µM under setting [5]. In addition, under setting [7], the “Maximum % activity (with co-corrector)” value is “+++ (≥350)”.
As for `CC(C)c1ccccc1[C@H]1[C@@H](NCc2cc(C(C)(C)C)ccc2O)[C@H](C(C)(C)C)[C@@H](C(=O)O)N1C(=O)[C@@H]1CCCO1` [Example I-285], the EC50 was more than 10 µM under setting [1] and less than 1 µM under setting [2]. The “Maximum % activity (with co-corrector)” value under setting [3] is reported as “+ (<150)”. In addition, the Emax (CSE-HRP, without co-corrector) was less than 100%.
Consider `CC(C)(C)[C@@H]1[C@@H](NCc2cc(C(F)(F)F)ccc2OCCOC(F)(F)F)[C@@H](c2ccccc2)N(C(=O)C2CCCCC2)[C@H]1C(=O)O` (racemic) [III-86], for which, under setting [6], the Emax is less than 100%. Further, the 50% effective concentration (EC50) is more than 10 µM under setting [4] and 1 to 10 µM under setting [5]. The “Maximum % activity (with co-corrector)” value under setting [7] is “++ (≥150 and <350)”.
In the case of `COc1ncc(C2CCC2)cc1CN[C@H]1[C@H](C(C)(C)C)[C@@H](C(=O)O)N(C(=O)OC(C)C)[C@H]1c1ccccc1C1CC1` [Example 93, (2S,3S,4S,5S)-3-tert-butyl-4-{[(5-cyclobutyl-2-methoxypyridin-3-yl)methyl]amino}-5-(2-cyclopropylphenyl)-1-{[(propan-2-yl)oxy]carbonyl}pyrrolidine-2-carboxylic acid], the 50% effective concentration (EC50) under setting [4] was 1 to 10 µM and the EC50 under setting [5] is less than 1 µM. Where the note is “with co-corrector (2 μM)”, the “Maximum % activity (with co-corrector)” value is recorded as “+++ (≥350)”. Also, where the note is “without co-corrector”, the Emax is more than 200%.
Consider `Cc1cc(C(F)(F)F)cc(N[C@@H]2[C@@H](C(C)(C)C)[C@H](C(=O)O)N(C(=O)C3CCC(F)(F)CC3)[C@@H]2c2ccccc2)n1` (racemic) [III-104], for which the Emax under setting [6] is less than 100%. The concentration for a half-maximal effect (EC50) was more than 10 µM under setting [4] and 1 to 10 µM under setting [5]. The “Maximum % activity (with co-corrector)” value (with co-corrector (2 μM)) is “++ (≥150 and <350)”.
Regarding `COc1ccc(Cl)cc1CN[C@H]1[C@H](C(C)(C)C)[C@@H](C(=O)O)N(C(=O)C2CCCCC2)[C@H]1c1ccccc1` [II-97], the EC50 is, setting by setting: under setting [1], 1 to 10 µM; under setting [2], less than 1 µM. Besides, the “Maximum % activity (with co-corrector)” value under setting [3] is listed as “+++ (≥350)”. Moreover, the Emax (CSE-HRP, without co-corrector) is more than 200%.
For the compound `COc1ccc(C(F)(F)F)cc1CN[C@H]1[C@H](C(C)(C)C)[C@@H](C(=O)O)N(C(=O)[C@@H]2CCCC(F)(F)C2)[C@H]1c1ccccc1` [Example I-124], the EC50 by setting is: under setting [4], 1 to 10 µM; under setting [5], 1 to 10 µM. Besides, under “with co-corrector (2 μM)”, the “Maximum % activity (with co-corrector)” value is listed as “+++ (≥350)”. For the same compound, for the setting “without co-corrector”, the Emax is less than 100%.
Take `COc1cc(C(F)(F)F)ccc1CN[C@H]1[C@H](C(C)(C)C)[C@@H](C(=O)O)N(C(=O)[C@@H](OC)c2ccccc2)[C@H]1c1ccccc1` [II-65]: the concentration for a half-maximal effect (EC50) was in the range of 1 to 10 µM under setting [1] and 1 to 10 µM under setting [2]. Moreover, the “Maximum % activity (with co-corrector)” value under setting [3] is on record as “+++ (≥350)”. For the same compound, the Emax (CSE-HRP, without co-corrector) was in the range of 100 to 200%.
For `COc1cc(C(F)(F)F)ccc1CN[C@@H]1[C@@H](C(C)(C)C)[C@H](C(=O)O)N(C(=O)C2CCC(F)(F)CC2)[C@@H]1c1ccccc1` (racemic) [II-69], the EC50 is, setting by setting: under setting [1], 1 to 10 µM; under setting [2], 1 to 10 µM. Moreover, under setting [3], the “Maximum % activity (with co-corrector)” value is “++ (≥150 and <350)”. In addition, the Emax (CSE-HRP, without co-corrector) was less than 100%.
In the case of `COc1ncc(C(C)(C)C)cc1CN[C@H]1[C@H](C(C)(C)C)[C@@H](C(=O)O)N(C(=O)C2CCCCC2)[C@H]1c1cccnc1OC` [Example I-135], the EC50 by setting is: under setting [4], 1 to 10 µM; under setting [5], 1 to 10 µM. Also, the “Maximum % activity (with co-corrector)” value (with co-corrector (2 μM)) is “+++ (≥350)”. Moreover, for the setting “without co-corrector”, the Emax is more than 200%.
For `COc1ccc(C(C)(C)C)cc1CN[C@H]1[C@H](C(C)(C)C)[C@@H](C(=O)O)N(C(=O)[C@@H]2CCCN(C(=O)OC(C)C)C2)[C@H]1c1ccccc1` [Example I-246, (2S,3S,4S,5S)-3-tert-butyl-4-{[(5-tert-butyl-2-methoxyphenyl)methyl]amino}-5-phenyl-1-[(3R)-1-{[(propan-2-yl)oxy]carbonyl}piperidine-3-carbonyl]pyrrolidine-2-carboxylic acid], the EC50 under setting [4] was in the range of 1 to 10 µM and the EC50 under setting [5] lay within 1 to 10 µM. Besides, where the note is “with co-corrector (2 μM)”, the “Maximum % activity (with co-corrector)” value is listed as “+++ (≥350)”. Moreover, the Emax (without co-corrector) was more than 200%.
As for `COc1ccc(-c2ccccc2)cc1CN[C@H]1[C@H](C(C)(C)C)[C@@H](C(=O)O)N(C(=O)OC(C)C)[C@H]1c1ccccc1` [II-160], the EC50 is, setting by setting: under setting [1], 1 to 10 µM; under setting [2], less than 1 µM. In addition, the “Maximum % activity (with co-corrector)” value under setting [3] is “+++ (≥350)”. The Emax (CSE-HRP, without co-corrector) was more than 200%.
For `COc1ccc(OC(F)F)cc1CN[C@H]1[C@H](C(C)(C)C)[C@@H](C(=O)O)N(C(=O)C2CCCCC2)[C@H]1c1ccccc1` [II-292], in that order: 1 to 10 µM, 1 to 10 µM, “+++ (≥350)” and 100 to 200%.
For the compound `COc1cc(C(F)(F)F)ccc1CN[C@H]1[C@H](C(C)(C)C)[C@@H](C(=O)O)N(C(=O)C2CCCC(F)(F)C2)[C@H]1c1cccnc1OC` (relative stereo) [Example I-257], the EC50 runs as follows: under setting [1], 1 to 10 µM; under setting [2], less than 1 µM. In addition, under setting [3], the “Maximum % activity (with co-corrector)” value is “+++ (≥350)”. Moreover, for the setting “CSE-HRP, without co-corrector”, the Emax lay in the range of 100 to 200%.
Regarding `COc1ccc(C(C)(C)C)cc1CN[C@H]1[C@H](C(C)(C)C)[C@@H](C(=O)NS(C)(=O)=O)N(C(=O)C2CCCCC2)[C@H]1c1ccccc1` [Example 58, (2S,3S,4S,5S)-3-tert-butyl-4-{[(5-tert-butyl-2-methoxyphenyl)methyl]amino}-1-(cyclohexanecarbonyl)-N-(methanesulfonyl)-5-phenylpyrrolidine-2-carboxamide], the EC50 was 1 to 10 µM under setting [4] and 1 to 10 µM under setting [5]. Also, the “Maximum % activity (with co-corrector)” value (with co-corrector (2 μM)) is “++ (≥150 and <350)”. For the same compound, where the note is “without co-corrector”, the Emax is less than 100%.
As for `CC(C)(C)[C@H]1[C@H](NCc2cc3ccccc3nc2O)[C@H](c2ccccc2)N(C(=O)C2CCCCC2)[C@@H]1C(=O)O` [III-180], the Emax under setting [6] was less than 100%. The concentration giving a half-maximal response (EC50) was more than 10 µM under setting [4] and 1 to 10 µM under setting [5]. Further, the “Maximum % activity (with co-corrector)” value (with co-corrector (2 μM)) is “++ (≥150 and <350)”.
